# Results published in patent publication US10294202B2, “Pyrrolidinones as herbicides” (FMC Corporation, priority 2013, dated 2019).
# Key:
# velvetleaf = test: Test A pre-/postemergence herbicide test; assay type: in vivo, Abutilon theophrasti; settings: for Velvetleaf plant response rating: Preemergence, visual rating on 0 to 100 scale (0 no effect, 100 complete control)
# Summary of the method: (§1)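 Greenhouse pot test with pre- and postemergence application of surfactant-containing solvent formulations. Postemergence plants were 2–10 cm, one- to two-leaf stage. Response scored visually after ~10 days, 0 (no effect) to 100 (complete control).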
# morningglory = test: Test A pre-/postemergence herbicide test; assay type: in vivo, Ipomoea spp.; settings: for Morningglory plant response rating: Preemergence, visual rating on 0 to 100 scale (0 no effect, 100 complete control)
# Summary of the method: as §1
# chickweed = test: Test C postemergence herbicide test; assay type: in vivo, Stellaria media
# Excerpt: At the same time, plants selected from these crop and weed species and also barley (winter barley, Hordeum vulgare), […]), chickweed (common chickweed, Stellaria media), deadnettle (henbit deadnettle, Lamium amplexicaule), and canarygrass (littleseed canarygrass, Phalaris minor) were planted in pots containing Redi-Earth® planting medium (Scotts Company, 14111 Scottslawn Road, Marysville, Ohio 43041) comprising spaghnum peat moss, vermiculite, wetting agent and starter nutrients and treated with postemergence applications of test chemicals formulated in the same manner. Plants ranged in height from 2 to 18 cm (1- to 4-leaf stage) for postemergence treatments. Treated plants and controls were maintained in a greenhouse for 13 to 15 days, after which time all species were compared to controls and visually evaluated. Plant response ratings, summarized in Table C, are based on a scale of 0 to 100 where 0 is no effect and 100 is complete control. A dash (-) response means no test result.
# crabgrass, large = test: Test A pre-/postemergence herbicide test; assay type: in vivo, Digitaria sanguinalis; settings: for Crabgrass, Large plant response rating: Preemergence, visual rating on 0 to 100 scale (0 no effect, 100 complete control)
# Summary of the method: as §1
# rice = test: Test C flooded paddy test; assay type: in vivo, Oryza sativa; settings: Flood, scale of 0 to 100 where 0 is no effect and 100 is complete control, 13 to 15 days
# Summary of the method: (§2)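 Plants at the 2-leaf stage in pots flooded to 3 cm were treated by applying compound directly to the paddy water, with depth held throughout. After 13 to 15 days in a greenhouse, response was rated visually against controls on a 0 (no effect) to 100 (complete control) scale.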
# barnyardgrass = test: Test C flooded paddy test; assay type: in vivo, Echinochloa crus-galli; settings: Flood, scale of 0 to 100 where 0 is no effect and 100 is complete control, 13 to 15 days
# Summary of the method: as §2
# ragweed = test: Test A pre-/postemergence herbicide test; assay type: in vivo, Ambrosia elatior
# Summary of the method: as §1
# galium = test: Test A postemergence herbicide test; assay type: in vivo, Galium aparine
# Summary of the method: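 Injury was rated visually about 10 days after treatment on a 0 (no effect) to 100 (complete control) scale, compared with untreated plants. Test chemicals were sprayed postemergence onto greenhouse plants 2–10 cm high at one to two leaves, grown in a loam–sand blend.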
# ducksalad = test: Test C flooded paddy test; assay type: in vivo, Heteranthera limosa; settings: Flood, scale of 0 to 100 where 0 is no effect and 100 is complete control, 13 to 15 days
# Summary of the method: as §2
# ryegrass, Italian = test: Test A pre-/postemergence herbicide test; assay type: in vivo, Lolium multiflorum
# Summary of the method: as §1
# sedge, umbrella = test: Test C flooded paddy test; assay type: in vivo, Cyperus difformis; settings: Flood, scale of 0 to 100 where 0 is no effect and 100 is complete control, 13 to 15 days
# Summary of the method: as §2
# [1] = Postemergence, 1000 g ai/ha, 0 to 100 scale (0 no effect, 100 complete control)
# [2] = preemergence, 1000 g ai/ha, 0 to 100 scale
# [3] = 31 g ai/ha, scale 0 (no effect) to 100 (complete control)
# [4] = 62 g ai/ha, scale 0 to 100 (0 no effect, 100 complete control)
# [5] = 125 g ai/ha, scale 0 to 100 (0 no effect, 100 complete control)
# [6] = 250 g ai/ha, scale 0 to 100 (0 no effect, 100 complete control)
# [7] = Postemergence, 125 g ai/ha, 0 to 100 scale, 0 no effect, 100 complete control
# [8] = Postemergence, 500 g ai/ha, 0 to 100 scale (0 no effect, 100 complete control)
# [9] = preemergence, 500 g ai/ha, 0 to 100 scale
# [10] = Postemergence, 125 g ai/ha, visual rating on 0 to 100 scale (0 no effect, 100 complete control), approx. 10 days
# [11] = Preemergence, 125 g ai/ha, 0 to 100 scale where 0 is no effect and 100 is complete control
# [12] = Preemergence, 500 g ai/ha, visual rating on 0 to 100 scale (0 no effect, 100 complete control)
smiles,measurement,setting,value
Cc1c(F)cccc1NC(=O)C1C(=O)NCC1c1ccc(F)c(F)c1 (racemic) [Compound 106],"Plant response rating, Velvetleaf",velvetleaf; [1],40
same,"Plant response rating, Velvetleaf",velvetleaf; [2],0
same,"Plant response rating, Morningglory",morningglory; [1],20
same,"Plant response rating, Morningglory",morningglory; [2],0
same,"Plant response rating, Chickweed",chickweed; [3],0
same,"Plant response rating, Chickweed",chickweed; [4],0
same,"Plant response rating, Chickweed",chickweed; [5],5
same,"Plant response rating, Chickweed",chickweed; [6],30
same,"Plant response rating, Crabgrass, Large","crabgrass, large; [1]",90
same,"Plant response rating, Crabgrass, Large","crabgrass, large; [2]",90
O=C1NCC(c2cc(F)c(F)cc2F)C1C(=O)Nc1cccc(F)c1F (centres unmarked) [Compound 50],"Plant response rating, Velvetleaf",velvetleaf; [7],0
same,"Plant response rating, Velvetleaf",velvetleaf; [8],0
same,Velvetleaf plant response rating,velvetleaf; 125 g ai/ha,0
same,"Plant response rating, Velvetleaf",velvetleaf; [9],0
same,"Plant response rating, Morningglory",morningglory; [7],0
same,"Plant response rating, Morningglory",morningglory; [8],0
same,Morningglory plant response rating,morningglory; 125 g ai/ha,0
same,"Plant response rating, Morningglory",morningglory; [9],0
same,"Plant response rating, Chickweed",chickweed; [3],0
same,"Plant response rating, Chickweed",chickweed; [4],0
same,"Plant response rating, Chickweed",chickweed; [5],0
same,"Plant response rating, Chickweed",chickweed; [6],5
same,"Plant response rating, Crabgrass, Large","crabgrass, large; [7]",80
same,"Plant response rating, Crabgrass, Large","crabgrass, large; [8]",80
same,"Crabgrass, Large plant response rating","crabgrass, large; 125 g ai/ha",90
same,"Plant response rating, Crabgrass, Large","crabgrass, large; [9]",90
O=C1NCC(c2cc(F)c(F)c(F)c2)C1C(=O)Nc1cccc(F)c1F (centres unmarked) [Compound 48],"Plant response rating, Velvetleaf",velvetleaf; [7],0
same,"Plant response rating, Velvetleaf",velvetleaf; [8],20
same,Velvetleaf plant response rating,velvetleaf; 125 g ai/ha,0
same,"Plant response rating, Velvetleaf",velvetleaf; [9],0
same,"Plant response rating, Morningglory",morningglory; [7],0
same,"Plant response rating, Morningglory",morningglory; [8],20
same,Morningglory plant response rating,morningglory; 125 g ai/ha,0
same,"Plant response rating, Morningglory",morningglory; [9],0
same,"Plant response rating, Chickweed","chickweed; 16 g ai/ha, scale 0 to 100 (0 no effect, 100 complete control)",0
same,"Plant response rating, Chickweed",chickweed; [3],0
same,"Plant response rating, Chickweed",chickweed; [4],30
same,"Plant response rating, Chickweed",chickweed; [5],30
same,"Plant response rating, Crabgrass, Large","crabgrass, large; [7]",80
same,"Plant response rating, Crabgrass, Large","crabgrass, large; [8]",80
same,"Crabgrass, Large plant response rating","crabgrass, large; 125 g ai/ha",90
same,"Plant response rating, Crabgrass, Large","crabgrass, large; [9]",90
CC(C)c1cccc(C2CNC(=O)C2C(=O)Nc2ccccc2F)c1 (centres unmarked) [Compound 318],"Plant response rating, Rice",rice; 31 g ai/ha,0
same,"Plant response rating, Rice",rice; 62 g ai/ha,0
same,"Plant response rating, Rice",rice; 125 g ai/ha,10
same,"Plant response rating, Rice",rice; 250 g ai/ha,15
same,"Plant response rating, Barnyardgrass",barnyardgrass; 31 g ai/ha,20
same,"Plant response rating, Barnyardgrass",barnyardgrass; 62 g ai/ha,30
same,"Plant response rating, Barnyardgrass",barnyardgrass; 125 g ai/ha,60
same,"Plant response rating, Barnyardgrass",barnyardgrass; 250 g ai/ha,70
same,"Plant response rating, Ragweed",ragweed; [10],0
same,"Plant response rating, Ragweed",ragweed; [8],30
same,"Plant response rating, Ragweed",ragweed; [11],20
same,Ragweed plant response rating,ragweed; [12],40
same,"Plant response rating, Galium","galium; 125 g ai/ha, visual rating on 0 to 100 scale (0 no effect, 100 complete control), approx. 10 days",30
same,"Plant response rating, Galium","galium; 500 g ai/ha, 0 to 100 scale (0 no effect, 100 complete control)",40
same,"Plant response rating, Ducksalad",ducksalad; 31 g ai/ha,50
same,"Plant response rating, Ducksalad",ducksalad; 62 g ai/ha,60
same,"Plant response rating, Ducksalad",ducksalad; 125 g ai/ha,100
same,"Plant response rating, Ducksalad",ducksalad; 250 g ai/ha,100
same,"Plant response rating, Ryegrass, Italian","ryegrass, Italian; [10]",20
same,"Plant response rating, Ryegrass, Italian","ryegrass, Italian; [8]",40
same,"Plant response rating, Ryegrass, Italian","ryegrass, Italian; [11]",20
same,"Ryegrass, Italian plant response rating","ryegrass, Italian; [12]",60
same,"Plant response rating, Sedge, Umbrella","sedge, umbrella; 31 g ai/ha",0
same,"Plant response rating, Sedge, Umbrella","sedge, umbrella; 62 g ai/ha",0
same,"Plant response rating, Sedge, Umbrella","sedge, umbrella; 125 g ai/ha",0
same,"Plant response rating, Sedge, Umbrella","sedge, umbrella; 250 g ai/ha",0
